# Results published in ChEMBL document CHEMBL1126404, “A novel approach to the site specific delivery of potential HMG-CoA reductase inhibitors” (Bioorg Med Chem Lett, 1992).
# Legend:
# [1] = molecular target: T1, 3-hydroxy-3-methylglutaryl-coenzyme A reductase (Rattus norvegicus) (UniProt P51639); experiment: The compound was evaluated for Inhibition of rat hepatic microsomal HMG-CoA reductase at log concentration of ~-5/M.
# T1 sequence (whole entry): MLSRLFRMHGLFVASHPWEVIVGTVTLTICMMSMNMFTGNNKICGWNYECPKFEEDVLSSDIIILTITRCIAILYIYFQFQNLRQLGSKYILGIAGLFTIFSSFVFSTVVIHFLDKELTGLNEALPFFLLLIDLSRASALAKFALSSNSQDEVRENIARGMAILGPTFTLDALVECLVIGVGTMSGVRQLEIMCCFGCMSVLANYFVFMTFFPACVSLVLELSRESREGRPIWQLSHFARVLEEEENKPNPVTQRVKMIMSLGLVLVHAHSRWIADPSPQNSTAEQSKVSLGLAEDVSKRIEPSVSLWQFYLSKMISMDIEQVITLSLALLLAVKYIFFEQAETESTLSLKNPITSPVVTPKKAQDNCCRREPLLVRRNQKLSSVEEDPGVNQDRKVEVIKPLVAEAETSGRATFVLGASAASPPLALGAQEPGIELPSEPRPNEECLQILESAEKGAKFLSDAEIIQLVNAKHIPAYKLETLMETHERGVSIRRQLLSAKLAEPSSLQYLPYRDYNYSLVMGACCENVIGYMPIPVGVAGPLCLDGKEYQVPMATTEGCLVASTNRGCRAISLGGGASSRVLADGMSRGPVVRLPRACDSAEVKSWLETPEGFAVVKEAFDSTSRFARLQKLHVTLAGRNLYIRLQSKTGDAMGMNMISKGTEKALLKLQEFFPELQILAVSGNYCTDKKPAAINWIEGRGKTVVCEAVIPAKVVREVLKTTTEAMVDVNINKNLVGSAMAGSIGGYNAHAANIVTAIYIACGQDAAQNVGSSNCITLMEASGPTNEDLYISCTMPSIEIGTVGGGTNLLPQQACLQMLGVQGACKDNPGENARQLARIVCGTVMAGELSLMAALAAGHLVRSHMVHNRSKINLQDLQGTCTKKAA
# [2] = molecular target: T1, 3-hydroxy-3-methylglutaryl-coenzyme A reductase (Rattus norvegicus); experiment: The compound was evaluated for Inhibition of rat hepatic microsomal HMG-CoA reductase at log concentration of ~-8/M
# [3] = molecular target: T1, 3-hydroxy-3-methylglutaryl-coenzyme A reductase (Rattus norvegicus); experiment: The compound was evaluated for Inhibition of rat hepatic microsomal HMG-CoA reductase at log concentration of ~-6/M.
# [4] = molecular target: T1, 3-hydroxy-3-methylglutaryl-coenzyme A reductase (Rattus norvegicus); experiment: The compound was evaluated for Inhibition of rat hepatic microsomal HMG-CoA reductase at log concentration of ~-7/M.
# [5] = molecular target: T2, 3-hydroxy-3-methylglutaryl-coenzyme A reductase (Rattus norvegicus, UniProt P51639); experiment: The compound was evaluated for Inhibition of rat hepatic microsomal HMG-CoA reductase.
# T2 sequence (P51639 whole entry): T1 sequence (whole entry)
# [6] = molecular target: T1, 3-hydroxy-3-methylglutaryl-coenzyme A reductase (Rattus norvegicus); experiment: The compound was evaluated for Inhibition of rat hepatic microsomal HMG-CoA reductase at log concentration of ~-4/M.
# [7] = molecular target: T1, 3-hydroxy-3-methylglutaryl-coenzyme A reductase (Rattus norvegicus)
# Description: The compound was evaluated for Inhibition of rat hepatic microsomal HMG-CoA reductase at log concentration of ~-11/M
# [8] = molecular target: T1, 3-hydroxy-3-methylglutaryl-coenzyme A reductase (Rattus norvegicus); remark: listed apart in the source
# Description: The compound was evaluated for Inhibition of rat hepatic microsomal HMG-CoA reductase at log concentration of ~-10/M.
# [9] = molecular target: T1, 3-hydroxy-3-methylglutaryl-coenzyme A reductase (Rattus norvegicus); remark: listed apart in the source
# Description: The compound was evaluated for Inhibition of rat hepatic microsomal HMG-CoA reductase at log concentration of ~-9/M.
# [10] = molecular target: T1, 3-hydroxy-3-methylglutaryl-coenzyme A reductase (Rattus norvegicus); experiment: The compound was evaluated for Inhibition of rat hepatic microsomal HMG-CoA reductase at log concentration of ~-3/M.
# [11] = molecular target: T1, 3-hydroxy-3-methylglutaryl-coenzyme A reductase (Rattus norvegicus); experiment: The compound was evaluated for Inhibition of rat hepatic microsomal HMG-CoA reductase at log concentration of ~-8/M.
# [12] = molecular target: T1, 3-hydroxy-3-methylglutaryl-coenzyme A reductase (Rattus norvegicus); experiment: The compound was evaluated for Inhibition of rat hepatic microsomal HMG-CoA reductase at log concentration of ~-5/M
# [13] = molecular target: T1, 3-hydroxy-3-methylglutaryl-coenzyme A reductase (Rattus norvegicus); experiment: The compound was evaluated for Inhibition of rat hepatic microsomal HMG-CoA reductase at log concentration of ~-4/M
# [14] = molecular target: T1, 3-hydroxy-3-methylglutaryl-coenzyme A reductase (Rattus norvegicus); experiment: The compound was evaluated for Inhibition of rat hepatic microsomal HMG-CoA reductase at log concentration of ~-6/M
# [15] = molecular target: T1, 3-hydroxy-3-methylglutaryl-coenzyme A reductase (Rattus norvegicus); experiment: The compound was evaluated for Inhibition of rat hepatic microsomal HMG-CoA reductase at log concentration of ~-3/M
Activity (nM min-1 mg-1) [1],Activity (nM min-1 mg-1) [2],Activity (nM min-1 mg-1) [3],Activity (nM min-1 mg-1) [4],IC50 [5],Activity (nM min-1 mg-1) [6],Activity (nM min-1 mg-1) [7],Activity (nM min-1 mg-1) [8],Activity (nM min-1 mg-1) [9],Activity (nM min-1 mg-1) [10],Activity (nM min-1 mg-1) [11],Activity (nM min-1 mg-1) [12],Activity (nM min-1 mg-1) [13],Activity (nM min-1 mg-1) [14],Activity (nM min-1 mg-1) [15],SMILES
30,280,150,270,12.3 µM,0,,,,,,,,,,C[C@H](CC(O)CC(O)CC(=O)O)[C@H]1CC[C@H]2[C@@H]3[C@H](O)C[C@@H]4C[C@H](O)CC[C@]4(C)[C@H]3C[C@H](OC(=O)C(C)(C)C)[C@]12C (some centres not stated)
,,0,,,,280,280,240,,,,,,,CC[C@@H](C)C(=O)O[C@H]1C[C@@H](C)C=C2C=C[C@H](C)[C@H](CC[C@@H](O)C[C@@H](O)CC(=O)O)[C@H]21
290,,300,290,,290,,,,250,280,,,,,COC(=O)CC(=O)CC(O)C[C@@H](C)[C@H]1CC[C@H]2[C@@H]3[C@H](OC(C)=O)C[C@@H]4C[C@H](OC(C)=O)CC[C@]4(C)[C@H]3C[C@H](OC(C)=O)[C@]12C (some centres not stated)
,300,,,39.2 µM,,,,,,,240,80,280,0,CC(=O)O[C@@H]1CC[C@@]2(C)[C@@H](C1)C[C@@H](OC(C)=O)[C@@H]1[C@@H]2C[C@H](OC(C)=O)[C@]2(C)[C@@H]([C@H](C)CC(O)CC(O)CC(=O)O)CC[C@@H]12 (some centres not stated)
